In patent publication US20200289523A1, “FIXED DOSED PHARMACEUTICAL COMPOSITION COMPRISING AMIODIPINE, CANDESARTAN CILEXETIL AND HYDROCHLOROTHIAZIDE FOR THE TREATMENT OF HYPERTENSION” (MIDAS PHARMA GMBH, priority 2016, published 2020):

Tests used:
[1] = Solubility in various standard dissolution media (FIG. 1); format: physicochemical; details: at low pH-values
[2] = In-vitro dissolution of tablets (Ph. Eur. 2.9.3/USP <711>); format: physicochemical; details: on changes of the composition of the formulation
Method: The in-vitro dissolution of tablets was analyzed according to Ph.

Compound | solubility [1] | dissolution profile of Hydrochlorothiazide [2]
CCOc1nc2cccc(C(=O)OC(C)OC(=O)OC3CCCCC3)c2n1Cc1ccc(-c2ccccc2-c2nnn[nH]2)cc1 (centres unmarked) [Candesartan cilexetil] | barely soluble | 
NS(=O)(=O)c1cc2c(cc1Cl)NCNS2(=O)=O [Hydrochlorothiazide, 6-chloro-1,1-dioxo-3,4-dihydro-2H-1,2,4-benzothiadiazine-7-sulfonamide] |  | not influenced by changes of the composition
